From patent publication US6590140B1, “Metal-regulated transporters and uses therefor” (Trustees of Dartmouth College, priority 1996, dated 2003)

Assays:
[1] = target: T1, ZIP2 (Arabidopsis thaliana, UniProt Q9LTH9); test: Zn uptake by ZHY3 containing ZIP2; type: cell-based; details: ZHY3 cells containing ZIP2, 5 minute time course using 10 mM Zn
T1 construct: expressed in transfected cells; host or cells: S. cerevisiae ZHY3 (zrt1::LEU2 zrt2::HIS3) with an Arabidopsis cDNA clone in pFL61
T1 sequence (Q9LTH9 30-353): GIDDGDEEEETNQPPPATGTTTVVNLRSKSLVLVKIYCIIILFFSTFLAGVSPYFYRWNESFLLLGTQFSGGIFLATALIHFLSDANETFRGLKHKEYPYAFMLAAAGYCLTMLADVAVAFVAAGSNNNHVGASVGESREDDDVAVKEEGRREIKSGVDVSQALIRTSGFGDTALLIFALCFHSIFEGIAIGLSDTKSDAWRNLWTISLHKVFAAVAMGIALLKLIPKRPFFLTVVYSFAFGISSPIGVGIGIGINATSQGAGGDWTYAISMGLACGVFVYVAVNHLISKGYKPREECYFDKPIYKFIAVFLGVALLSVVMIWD
Method: Zinc uptake assays were performed as described previously for iron uptake (Eide et al. (1992) J. Biol. Chem. 267:20774-20781) except that ^65ZnCl2 (Amersham) and LZM-EDTA were substituted for ^59FeCI3 and LIM-EDTA, respectively. Cells were incubated for 5 minutes in LZM-EDTA plus the indicated concentration of ^65Zn, collected on glass fiber filters (Schleicher and Schuell), washed with 10 ml ice-cold SSW (1 mM EDTA, 20 mM trisodium citrate, 1 mM KH2PO4, 1 mM CaCl2, 5 mM MgSO4, 1 mM NaCl pH 4.2), and cell-associated radioactivity was measured by liquid scintillation counting. […] Michaelis-Menten kinetic values were determined using […] software (Intellikinetics, Princeton, N.J.). […] The statistical significance of the differences of values relative to controls was determined with one-way analysis of variance (ANOVA) followed by a Dunnett multiple comparison test. β-galactosidase activity was assayed in cells harvested at an OD600 of 0.5-2.0 as described by Guarente (Guarente, L. (1983) Methods Enzymol. 101:181-191) and activity is expressed as the change in absorbance at 420 nm×1000 divided by (min×ml of culture used×OD600 of the culture). Cell-associated zinc was measured in parallel cultures supplemented with tracer amounts of ^65Zn (10 μM) and nonradioactive zinc to the indicated final concentration. […]

[2] = tested on: zrt1zrt2 (ZHY3) cells; test: Zinc-limited growth, zrt1zrt2 mutant yeast; type: cell-based, Saccharomyces cerevisiae
Method: Strains used were DY1457 (MATα ade6 can1 his3 leu2 trp1 ura3), ZHY1 (AMTα ade6 can1 his3 leu2 trp1 ura3 zrt1::LEU2), ZHY2 (MATα ade6 can1 his3 leu2 trp1 ura3 zrt2::HIS3), and ZHY3 (MATα ade6 can1 his3 leu2 trp1 ura3 zrt1::LEU2 zrt2::HIS3). Yeast were grown in YP or SD media (Sherman et al. (1986) Methods in Yeast Genetics, Cold Spring Harbor Laboratory, Cold Spring Harbor, N.Y.) supplemented with necessary auxotrophic requirements and either 2% glucose or 2% galactose. Zinc-limiting YP and SD agar plates contained either bathophenanthroline disulfonate (BPS, 200 μM) or EDTA (1 mM), respectively. A liquid zinc-limiting medium (low zinc medium, LZM) was prepared in the same manner as low iron medium (LIM) (Eide and Guarente (1992) J. Gen. Microbiol. 138:347-354) except that the […]. LZM is similar in composition to SD medium with two modifications essential to controlling zinc availability. First, 1 mM EDTA is added to provide buffering for the concentration of free metal ions. Second, the medium is pH-buffered at 4.2 with 20 mM citrate to prevent pH changes that could alter the metal binding ability of EDTA. LZM was also prepared without EDTA ([…]) which is less zinc-limiting because the predominant chelator in this medium, citrate, binds zinc with less affinity than does EDTA. The concentrations of free (i.e. unchelated) zinc were calculated using MAXCHELATOR software (Chris Patton, Stanford University). Cell number in liquid cultures was determined by measuring the absorbance of cell suspensions at 600 nm (OD600) and converting to cell number with a standard curve.
To further assess the role of the low affinity system as a source of zinc, growth of wild type and zrt2 cells in a zinc-limiting medium, LZM, supplemented with increasing amounts of zinc was examined. The same strains as in FIG. 15 were grown for six hours in SD glucose medium, harvested, washed in LZM, and reinoculated into either LZM (FIG. 15A) or LZM-EDTA (FIG. 15B) supplemented with the indicated concentrations of ZnCl2 ([Zn]T). These cultures were then grown for 16 hours at 30° C. prior to cell number determination. Number of cell divisions are plotted against [Zn]T and the calculated free zinc concentration ([Zn]F). The metal ion buffering capacity of EDTA in LZM is exceeded at concentrations above 100 μM total zinc whereas the metal buffering capacity of citrate in LZM-EDTA maintains a linear relationship between [Zn]T and [Zn]F to concentrations greater than 1 mM. It has been shown previously that the zrt1 mutant requires greater than 500 μM total zinc ([Zn]T) in LZM to undergo its maximum number of cell divisions and this value corresponds to a calculated free (i.e. unchelated) zinc concentration ([Zn]F) of approximately 500 μM. […]

[Zn+2] [zinc]
Zn uptake [1]: no Zn uptake | calculated free zinc [Zn]F for maximum number of divisions ([2]; zrt1zrt2, LZM-EDTA, 16 hours): ~6 µM | total zinc for maximum number of divisions ([2]; zrt1zrt2, LZM-EDTA, 16 hours): 500 µM | zinc required in the medium relative to the wild type strain ([2]; zrt1zrt2 vs wild type): greater than 10^5 fold | zinc required for growth relative to the zrt1 strain ([2]; zrt1zrt2 vs zrt1): at least 1000 fold
